Data reported in ChEMBL document CHEMBL1201862, “PubChem BioAssay data set” (2004).
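These data come from cells grown in 96-well plates and exposed to compound for 48 hours at five concentrations. At the GI50, growth is halved.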 Active and inactive are the calls of the source. Cut-off read from the data, not from the text of the source: active = GI50 up to about 1.1 µM and inactive = higher.

Tests used:
Assay in all cases: inhibition of tumour cell growth, NCI panel, 48 h
786-0 = system: 786-0
A549 = system: A549
BT-549 = system: BT-549
COLO 205 = system: COLO 205
DU-145 = system: DU-145
EKVX = system: EKVX
HCC 2998 = system: HCC 2998
HCT-116 = system: HCT-116
HCT-15 = system: HCT-15
HL-60 = system: HL-60
HOP-62 = system: HOP-62
HT-29 = system: HT-29
Hs-578T = system: Hs-578T
MDA-MB-231 = system: MDA-MB-231
MDA-MB-435 = system: MDA-MB-435
NCI-H522 = system: NCI-H522
OVCAR-4 = system: OVCAR-4
RPMI-8226 = system: RPMI-8226
SK-MEL-28 = system: SK-MEL-28
UACC-257 = system: UACC-257

Measured: GI50

CCCCC[C@H]1CC=CC(=O)O1
4.2 µM: HCT-15
inactive: 786-0 3.1 µM | A549 5.86 µM | BT-549 4.06 µM | COLO 205 3.53 µM | DU-145 5.83 µM | EKVX 17.1 µM | HCC 2998 4.25 µM | HCT-116 3.16 µM | HL-60 2.88 µM | HOP-62 17.3 µM | HT-29 4.03 µM | Hs-578T 7.71 µM | MDA-MB-231 10 µM | MDA-MB-435 7.33 µM | NCI-H522 2.78 µM | OVCAR-4 5.7 µM | RPMI-8226 2.86 µM | SK-MEL-28 7.26 µM | UACC-257 12.1 µM

O=C(Nc1ccc2[nH]c(C(=O)N3CC(CCl)c4ccc([N+](=O)[O-])cc43)cc2c1)c1cc2ccccc2o1 (stereo not given)
> 1100 µM: HCT-15
inactive: 786-0 > 1100 µM | A549 556 µM | BT-549 > 1100 µM | COLO 205 > 1100 µM | DU-145 > 1100 µM | EKVX > 1100 µM | HCC 2998 > 1100 µM | HCT-116 > 1100 µM | HL-60 > 1100 µM | HOP-62 > 1100 µM | HT-29 > 1100 µM | Hs-578T > 1100 µM | MDA-MB-231 > 1100 µM | MDA-MB-435 > 1100 µM | NCI-H522 258 µM | OVCAR-4 > 1100 µM | RPMI-8226 > 1100 µM | SK-MEL-28 > 1100 µM | UACC-257 > 1100 µM

CC(C)(CN1CCCCC1)C(=O)/C=C/c1c(Cl)cccc1Cl
active: DU-145 0.769 µM | EKVX 0.834 µM | HCT-116 0.637 µM | MDA-MB-231 0.789 µM | MDA-MB-435 0.7 µM | NCI-H522 0.124 µM
0.879 µM: HCT-15
inactive: 786-0 1.31 µM | A549 1.95 µM | BT-549 1.86 µM | COLO 205 1.57 µM | HCC 2998 1.83 µM | HL-60 1.61 µM | HOP-62 1.79 µM | HT-29 1.38 µM | Hs-578T 2.17 µM | OVCAR-4 1.73 µM | RPMI-8226 3.89 µM | SK-MEL-28 1.56 µM | UACC-257 2 µM
